Data on twelve compounds can be found in ChEMBL document CHEMBL1201862, “PubChem BioAssay data set” (2004).

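Step 1: Grow cells in 96-well plates. Step 2: Expose to compound for 48 hours at 5 concentrations. Step 3: Interpolate endpoints linearly; if unreached, use highest concentration. GI50: concentration for 50% inhibition of growth.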 Calls of active or inactive are those of the source. No stated cut-off is given here; in the data, active = GI50 up to about 1.1 µM and inactive = higher. Some results are limits rather than exact numbers.

Test systems include NCI-H226; LOX IMVI; SN12C; UO-31; OVCAR-5; KM12; SR; HOP-62; EKVX; HOP-92; SK-MEL-2; MOLT-4; K562; SF-539; SK-OV-3; RXF 393; HT-29; A498.
Common to all, as to assay: NCI tumour cell line growth inhibition, 48 h

With `O=S(=O)(/C=C/c1ccc(F)cc1)Cc1ccc(CS(=O)(=O)/C=C/c2ccc(F)cc2)cc1`, the GI50 in the test with NCI-H226, in the test on LOX IMVI, in the test with SN12C, with UO-31, with OVCAR-5 and with KM12 was > 100 µM (inactive) each time. Besides, the GI50 in the test with SR, in the test with HOP-62, in the test with EKVX, in the test on HOP-92, with SK-MEL-2 and with MOLT-4 was > 100 µM (inactive) in each case. For the same compound, the GI50 in the test on K562, in the test with SF-539, in the test with SK-OV-3, in the test on RXF 393 and with HT-29 was > 100 µM (inactive) throughout.
`CC(=O)OC1COC(N2C(=O)C(=O)c3cc(Br)ccc32)C(OC(C)=O)C1OC(C)=O` (stereo not given): the GI50 in the test with NCI-H226, in the test with LOX IMVI, with SN12C, in the test on UO-31, in the test with A498 and with KM12 was > 100 µM (inactive) each time. Further, the GI50 in the test on SR is > 100 µM (inactive); in the test with HOP-62, > 100 µM (inactive); in the test with EKVX, > 100 µM (inactive); in the test on HOP-92, > 100 µM (inactive); with SK-MEL-2 it was > 100 µM (inactive); in the test on MOLT-4, 96.8 µM (inactive). For the same compound, the GI50 with K562, with SF-539, in the test with SK-OV-3, with RXF 393 and in the test on HT-29 was > 100 µM (inactive) throughout.
For `COc1ccccc1NC(=O)C1=C(C)NC(C)=C(C(=O)Nc2ccccc2OC)C1c1ccccc1OC`, the GI50 in the test with NCI-H226, in the test on LOX IMVI, in the test with SN12C, with UO-31, in the test on OVCAR-5 and in the test on A498 was > 100 µM (inactive) throughout. The GI50 in the test with KM12 is > 100 µM (inactive); in the test on SR, 83.2 µM (inactive); in the test on HOP-62, > 100 µM (inactive); with EKVX, > 100 µM (inactive); with HOP-92 it was > 100 µM (inactive); in the test on SK-MEL-2 it was > 100 µM (inactive). In addition, the GI50 in the test on MOLT-4 was 54.5 µM (inactive); in the test on K562, 60.5 µM (inactive); in the test with SF-539, > 100 µM (inactive); in the test with SK-OV-3, > 100 µM (inactive); in the test with HT-29, > 100 µM (inactive).
With `O=C(CC(=O)N1N=C(c2ccccc2)C(/N=N/c2ccc(Cl)cc2)C1=O)Nc1ccccc1Cl` (stereo not given), the GI50 in the test with NCI-H226 is 19 µM (inactive); in the test on LOX IMVI, 26.2 µM (inactive); in the test with SN12C, 92 µM (inactive); with UO-31, 22 µM (inactive); in the test with OVCAR-5, > 100 µM (inactive); in the test with A498, > 10 µM (inactive). Besides, the GI50 is 33.8 µM (inactive) in the test with KM12; 24.7 µM (inactive) with SR; 20.1 µM (inactive) in the test with HOP-62; 27.6 µM (inactive) in the test on EKVX; 32.4 µM (inactive) with SK-MEL-2; 33 µM (inactive) in the test on MOLT-4. In addition, the GI50 in the test on K562 was 36.7 µM (inactive); in the test on SF-539, 24.4 µM (inactive); with SK-OV-3 it was 18.8 µM (inactive); with HT-29, 37.4 µM (inactive).
As to `CC(=O)C(CN(Cc1ccccc1)Cc1ccccc1)C(c1ccccc1)c1c(O)c2ccccc2oc1=O` (stereo not given), the GI50 with NCI-H226, with LOX IMVI, with SN12C, in the test on UO-31, with OVCAR-5 and in the test on A498 was > 100 µM (inactive) throughout. Further, the GI50 in the test on KM12 was > 100 µM (inactive); with SR it was > 100 µM (inactive); in the test with HOP-62, > 100 µM (inactive); with EKVX, > 100 µM (inactive); in the test on HOP-92, 18.9 µM (inactive); in the test on SK-MEL-2, > 100 µM (inactive). Also, the GI50 with K562, in the test on SF-539, in the test on SK-OV-3, with RXF 393 and with HT-29 was > 100 µM (inactive) throughout.
For `O=C(Nc1ccn(CCO)c(=O)n1)c1ccccc1`, the GI50 with NCI-H226, in the test on LOX IMVI, in the test with SN12C, with UO-31, in the test with OVCAR-5 and with A498 was > 100 µM (inactive) in each case. Besides, the GI50 with KM12, in the test on SR, in the test with HOP-62, in the test with EKVX, in the test on HOP-92 and in the test with SK-MEL-2 was > 100 µM (inactive) throughout. Further, the GI50 in the test on K562, with SF-539, with SK-OV-3, in the test with RXF 393 and with HT-29 was > 100 µM (inactive) throughout.
As for `CCC1CCc2c(c(=O)oc3c2cc(OC)c2cccc(OC)c23)C1` (stereo not given), the GI50 was > 100 µM (inactive) in the test with NCI-H226; > 100 µM (inactive) in the test on SN12C; > 100 µM (inactive) in the test on UO-31; > 100 µM (inactive) with OVCAR-5; > 100 µM (inactive) in the test on A498; 47.8 µM (inactive) in the test on KM12. In addition, the GI50 in the test with SR is 38.1 µM (inactive); in the test on HOP-62, 60.5 µM (inactive); in the test on EKVX it was > 100 µM (inactive); with SK-MEL-2, > 100 µM (inactive); in the test on MOLT-4 it was 23.2 µM (inactive); in the test with K562, 40.9 µM (inactive). The GI50 is 58.6 µM (inactive) with SF-539, > 100 µM (inactive) in the test with SK-OV-3, 21.7 µM (inactive) with RXF 393 and 33.4 µM (inactive) in the test on HT-29.
`CCN(CC)c1ccc2cc(C(=O)Nc3ccccc3OC)c(=N)oc2c1`: the GI50 in the test on LOX IMVI was 22.9 µM (inactive); in the test with UO-31, 0.321 µM (active); in the test on OVCAR-5, 44.3 µM (inactive); with A498 it was 31.3 µM (inactive); in the test with KM12, 33.1 µM (inactive); in the test on SR, 5.16 µM (inactive). In addition, the GI50 in the test with HOP-62 was 12 µM (inactive); in the test on EKVX, 32.8 µM (inactive); with SK-MEL-2, 59.7 µM (inactive); in the test with MOLT-4 it was 3.24 µM (inactive); in the test on K562, 18.5 µM (inactive); in the test with SF-539, 46.6 µM (inactive). Further, the figures for the GI50 in the test on SK-OV-3 and in the test with HT-29 were 72.3 µM (inactive) and 12.9 µM (inactive), respectively.
As for `COc1ccc2nc3cc(Cl)ccc3c(Sc3ccc(NC(C)=O)cc3)c2c1`, the GI50 with LOX IMVI is 5.73 µM (inactive); in the test with SN12C, 14.9 µM (inactive); with OVCAR-5, > 29 µM (inactive); in the test with A498, > 41.7 µM (inactive); with KM12, 9.33 µM (inactive); with SR, 3.66 µM (inactive). The GI50 with HOP-62 is > 41.7 µM (inactive); in the test on SK-MEL-2, 12.3 µM (inactive); in the test with MOLT-4 it was 6.87 µM (inactive); in the test on K562, 9.71 µM (inactive); with SF-539, 12.3 µM (inactive); with SK-OV-3, > 22.4 µM (inactive). Moreover, the GI50 in the test with RXF 393 is 12.6 µM (inactive); in the test on HT-29, 92.3 µM (inactive).
In the case of `CN1C(=O)CNS1(=O)=O`, the GI50 in the test on NCI-H226, in the test with LOX IMVI, with SN12C, with UO-31, with OVCAR-5 and in the test on A498 was > 100 µM (inactive) throughout. Moreover, the GI50 with KM12, with SR, in the test with HOP-62, in the test on HOP-92, with SK-MEL-2 and with MOLT-4 was > 100 µM (inactive) throughout. Also, the GI50 in the test with K562, with SF-539, with SK-OV-3, in the test on RXF 393 and with HT-29 was > 100 µM (inactive) each time.
As to `CCCCCCCCC/C=C1\CCC(CN(C)C)C1=O` (stereo not given), the GI50 was 9.51 µM (inactive) in the test on NCI-H226; 1.22 µM (inactive) in the test on LOX IMVI; 2.08 µM (inactive) with SN12C; 2.02 µM (inactive) in the test on UO-31; 14.8 µM (inactive) in the test with OVCAR-5; 2.48 µM (inactive) with A498. The GI50 is 1.64 µM (inactive) in the test on KM12; 2.43 µM (inactive) with SR; 2.08 µM (inactive) in the test with HOP-62; 2.47 µM (inactive) with EKVX; 2.13 µM (inactive) in the test on HOP-92; 2.72 µM (inactive) with SK-MEL-2. The GI50 in the test with MOLT-4 was 2.62 µM (inactive); with K562, 1.86 µM (inactive); in the test on SF-539, 1.79 µM (inactive); with SK-OV-3, 17.2 µM (inactive); with HT-29, 1.7 µM (inactive).
On to `O=C(O)C(CS)NCc1c2ccccc2nc2ccccc12` (stereo not given), for which the GI50 with NCI-H226 was > 100 µM (inactive); in the test on LOX IMVI, 30.5 µM (inactive); with SN12C, 34.2 µM (inactive); in the test on UO-31 it was 18.5 µM (inactive); in the test on OVCAR-5, > 100 µM (inactive); in the test on KM12, 26.9 µM (inactive). For the same compound, the GI50 was 19.5 µM (inactive) in the test on SR; 38.5 µM (inactive) in the test on EKVX; 25.9 µM (inactive) in the test on HOP-92; 68.2 µM (inactive) with SK-MEL-2; 15.3 µM (inactive) with MOLT-4; 26.1 µM (inactive) in the test with K562. In addition, the GI50 was 33.9 µM (inactive) in the test with SF-539, > 100 µM (inactive) with SK-OV-3, 24.2 µM (inactive) with RXF 393 and 35.6 µM (inactive) in the test on HT-29.
